Tested on: participants currently receiving high-intensity statin therapy
Assay: ROSE2 Phase 2b clinical trial: LDL-C and other lipid efficacy endpoints
Format: in vivo, human
Procedure: The primary objective of this study is to evaluate the effect of obicetrapib 10 mg+ezetimibe 10 mg combination therapy compared with placebo, when used as an adjunct to high-intensity statin therapy, on LDL-C at Day 84.
The secondary objectives of this study include the following, in hierarchical order: • To evaluate the effect of obicetrapib 10 mg monotherapy compared with placebo, when used as an adjunct to high-intensity statin therapy, on LDL-C at Day 84; • To evaluate the effect of obicetrapib 10 mg+ezetimibe 10 mg combination therapy compared with placebo, when used as an adjunct to high-intensity statin therapy, on ApoB at Day 84; and • To evaluate the effect of obicetrapib 10 mg monotherapy compared with placebo, when used as an adjunct to high-intensity statin therapy, on ApoB at Day 84.
This study will be a placebo-controlled, double-blind, randomized, Phase 2 study to evaluate the efficacy, safety, and tolerability of obicetrapib 10 mg, both in combination with ezetimibe 10 mg and as monotherapy, as an adjunct to high-intensity statin therapy. This study will take place at approximately 20 sites in the United States.
Up to 2 weeks after the Screening Visit, participants will return to the site on Day 1 (Visit 2) and confirm study eligibility before being randomized and beginning treatment. Approximately 114 eligible participants (38 participants per treatment group) will be randomized in a 1:1:1 ratio to 1 of the following treatment groups: • Combination therapy: Obicetrapib 10 mg+ezetimibe 10 mg (administered as one 10 mg obicetrapib tablet and one 10 mg ezetimibe capsule); • Obicetrapib monotherapy: Obicetrapib 10 mg (administered as one 10 mg obicetrapib tablet and 1 placebo capsule); or. • Placebo (administered as 1 placebo tablet and 1 placebo capsule).
During the 12-week Treatment Period, the assigned study drugs will be administered by the participants orally with water, once daily on Day 1 to Day 84 at approximately the same time each morning. Participants will return to the site on Day 28 (±2 days), Day 84 (±2 days), and Day 112 (±2 days) for efficacy, safety, and pharmacokinetic (PK) assessments. Participants, Investigators, the Clinical Research Organization (CRO), and the Sponsor will be blinded to all lipid results from Day 1 (Visit 2) for the first participant until all enrolled participants complete the Day 84 (End of Treatment) visit or are withdrawn from the study, in order to protect blinding to treatment assignment.
The primary efficacy endpoint is the percent change from Day 1 to Day 84 in LDL-C for the obicetrapib 10 mg+ezetimibe 10 mg combination treatment group compared with the placebo group.
The secondary efficacy endpoints include the following, in hierarchical order: • Percent change from Day 1 to Day 84 in LDL-C for the obicetrapib 10 mg monotherapy. • treatment group compared with the placebo group; • Percent change from Day 1 to Day 84 in ApoB for the obicetrapib 10 mg+ezetimibe 10 mg • combination treatment group compared with the placebo group; and • Percent change from Day 1 to Day 84 in ApoB for the obicetrapib 10 mg monotherapy treatment group compared with the placebo group.
The exploratory efficacy endpoints include the following: • Percent change from Day 1 to Day 84 in non-HDL-C, VLDL-C, HDL-C, TG, ApoE, Lp(a), and HDL-ApoE for the obicetrapib 10 mg+ezetimibe 10 mg combination treatment group compared with the placebo group and for the obicetrapib 10 mg monotherapy treatment group compared with the placebo group; and • Proportion of participants at Day 84 that achieve LDL-C <2.6 mmol/L (<100 mg/dL), LDL-C <1.8 mmol/L (<70 mg/dL), and LDL-C <1.3 mmol/L (<50 mg/dL) for the obicetrapib 10 mg+ezetimibe 10 mg combination treatment group compared with the placebo group and for the obicetrapib 10 mg monotherapy treatment group compared with the placebo group. […]

[1] = Exploratory Population, 10 mg each drug
[2] = mITT Population, 10 mg each drug

Question: For `CCOC(=O)N1c2ccc(C(F)(F)F)cc2[C@@H](N(Cc2cc(C(F)(F)F)cc(C(F)(F)F)c2)c2ncc(OCCCC(=O)O)cn2)C[C@H]1CC` [obicetrapib, {4-[(2-{[3,5-bis(trifluoromethyl)benzyl] [(2R,4S)-1-(ethoxycarbonyl)-2-ethyl-6-(trifluoromethyl)-1,2,3,4-tetrahydroquinolin-4-yl]amino}pyrimidin-5-yl)oxy]butanoic acid}], which “ApoB Change from Baseline to Day 28, Maximum” value [1] is on record?
Answer: -1 mg/dL

Question: What about the “ApoB Change from Baseline to Day 28, Median” value [1] of the same molecule?
Answer: -23.0 mg/dL

Question: What about the “ApoB Change from Baseline to Day 28, Minimum” value [1] of the same molecule?
Answer: -55 mg/dL

Question: And the “ApoB Change from Baseline to Day 84, Maximum” value [1]?
Answer: 19 mg/dL

Question: And the “ApoB Change from Baseline to Day 84, Minimum” value [1]?
Answer: -52 mg/dL

Question: What about the “ApoB Percent Change from Baseline to Day 28, Maximum” value [1] of the same molecule?
Answer: −3.0%

Question: And the “ApoB Percent Change from Baseline to Day 28, Mean” value [1]?
Answer: −26.00%

Question: What about the “ApoB Percent Change from Baseline to Day 28, Median” value [1] of the same molecule?
Answer: −26.00%

Question: And the “ApoB Percent Change from Baseline to Day 28, Minimum” value [1]?
Answer: −47.4%

Question: And the “ApoB Percent Change from Baseline to Day 84, Maximum” value [1]?
Answer: 27.1%

Question: And the “ApoB Percent Change from Baseline to Day 84, Minimum” value [1]?
Answer: −44.8%

Question: And the “LDL-C Change from Baseline to Day 28, Maximum” value [1]?
Answer: -11 mg/dL

Question: What about the “LDL-C Change from Baseline to Day 28, Mean” value [1] of the same molecule?
Answer: -43.0 mg/dL

Question: And the “LDL-C Change from Baseline to Day 28, Median” value [1]?
Answer: -45.0 mg/dL

Question: What about the “LDL-C Change from Baseline to Day 28, Minimum” value [1] of the same molecule?
Answer: -87 mg/dL

Question: What about the “LDL-C Change from Baseline to Day 84, Maximum” value [1] of the same molecule?
Answer: 24 mg/dL

Question: What about the “LDL-C Change from Baseline to Day 84, Minimum” value [1] of the same molecule?
Answer: -112 mg/dL

Question: And the “LDL-C Percent Change from Baseline to Day 28, Maximum” value [1]?
Answer: −10.4%

Question: And the “LDL-C Percent Change from Baseline to Day 28, Minimum” value [1]?
Answer: −82.0%

Question: What about the “LDL-C Percent Change from Baseline to Day 84, Maximum” value [1] of the same molecule?
Answer: 22.6%

Question: And the “LDL-C Percent Change from Baseline to Day 84, Minimum” value [1]?
Answer: −78.4%

Question: And the “Lp(a) Change from Baseline to Day 84, Maximum” value [1]?
Answer: 3.0 nmol/L

Question: And the “ApoB at Day 28, Maximum” value [1]?
Answer: 110 mg/dL

Question: And the “ApoB at Day 28, Mean” value [1]?
Answer: 65.4 mg/dL

Question: What about the “ApoB at Day 28, Median” value [1] of the same molecule?
Answer: 64.5 mg/dL

Question: And the “ApoB at Day 28, Minimum” value [1]?
Answer: 32 mg/dL

Question: And the “LDL-C at Day 28, Maximum” value [1]?
Answer: 136 mg/dL

Question: What about the “LDL-C at Day 28, Mean” value [1] of the same molecule?
Answer: 57.6 mg/dL

Question: What about the “LDL-C at Day 28, Median” value [1] of the same molecule?
Answer: 51.5 mg/dL

Question: And the “LDL-C at Day 28, Minimum” value [1]?
Answer: 16 mg/dL

Question: What about the “ApoB at Day 84, Maximum” value [1] of the same molecule?
Answer: 123 mg/dL

Question: And the “ApoB at Day 84, Mean” value [1]?
Answer: 69.1 mg/dL

Question: What about the “ApoB at Day 84, Median” value [1] of the same molecule?
Answer: 65.0 mg/dL

Question: And the “ApoB at Day 84, Minimum” value [1]?
Answer: 30 mg/dL

Question: What about the “LDL-C at Day 84, Maximum” value [1] of the same molecule?
Answer: 148 mg/dL

Question: And the “LDL-C at Day 84, Mean” value [1]?
Answer: 60.7 mg/dL

Question: And the “LDL-C at Day 84, Median” value [1]?
Answer: 55.5 mg/dL

Question: What about the “LDL-C at Day 84, Minimum” value [1] of the same molecule?
Answer: 21 mg/dL

Question: What about the “Lp(a) at Day 84, Maximum” value [1] of the same molecule?
Answer: 327.7 nmol/L

Question: What about the “Lp(a) at Day 84, Mean” value [1] of the same molecule?
Answer: 74.75 nmol/L

Question: And the “Lp(a) at Day 84, Median” value [1]?
Answer: 20.85 nmol/L

Question: What about the “Lp(a) at Day 84, Minimum” value [1] of the same molecule?
Answer: 2.8 nmol/L

Question: What about the “median reduction in LDL-C” value (ROSE2, obicetrapib 10 mg with or without ezetimibe 10 mg, adjunct to high-intensity statin) of the same molecule?
Answer: 39%

Question: What about the “ApoB Change from Baseline to Day 28, Maximum” value [2] of the same molecule?
Answer: 50 mg/dL

Question: And the “ApoB Change from Baseline to Day 28, Median” value [2]?
Answer: -20.0 mg/dL

Question: What about the “ApoB Change from Baseline to Day 28, Minimum” value [2] of the same molecule?
Answer: -85 mg/dL

Question: What about the “ApoB Change from Baseline to Day 84, Maximum” value [2] of the same molecule?
Answer: 67 mg/dL

Question: And the “ApoB Change from Baseline to Day 84, Minimum” value [2]?
Answer: -52 mg/dL

Question: What about the “ApoB Percent Change from Baseline to Day 28, Maximum” value [2] of the same molecule?
Answer: 64.9%

Question: What about the “ApoB Percent Change from Baseline to Day 28, Minimum” value [2] of the same molecule?
Answer: −62.0%

Question: What about the “ApoB Percent Change from Baseline to Day 84, Maximum” value [2] of the same molecule?
Answer: 100.0%

Question: What about the “ApoB Percent Change from Baseline to Day 84, Mean” value [2] of the same molecule?
Answer: −9.50%

Question: What about the “ApoB Percent Change from Baseline to Day 84, Minimum” value [2] of the same molecule?
Answer: −44.8%

Question: And the “LDL-C Change from Baseline to Day 28, Maximum” value [2]?
Answer: 64 mg/dL

Question: And the “LDL-C Change from Baseline to Day 28, Median” value [2]?
Answer: -35.0 mg/dL

Question: What about the “LDL-C Change from Baseline to Day 28, Minimum” value [2] of the same molecule?
Answer: -121 mg/dL

Question: And the “LDL-C Change from Baseline to Day 84, Maximum” value [2]?
Answer: 98 mg/dL

Question: And the “LDL-C Change from Baseline to Day 84, Minimum” value [2]?
Answer: -112 mg/dL

Question: And the “LDL-C Percent Change from Baseline to Day 28, Maximum” value [2]?
Answer: 70.3%

Question: What about the “LDL-C Percent Change from Baseline to Day 28, Minimum” value [2] of the same molecule?
Answer: −82.0%

Question: What about the “LDL-C Percent Change from Baseline to Day 84, Maximum” value [2] of the same molecule?
Answer: 161.5%

Question: And the “LDL-C Percent Change from Baseline to Day 84, Minimum” value [2]?
Answer: −78.4%

Question: And the “Lp(a) Change from Baseline to Day 84, Maximum” value [2]?
Answer: 22.0 nmol/L

Question: And the “Lp(a) Change from Baseline to Day 84, Median” value [2]?
Answer: -4.50 nmol/L

Question: And the “ApoB at Day 28, Maximum” value [2]?
Answer: 140 mg/dL

Question: And the “ApoB at Day 28, Mean” value [2]?
Answer: 73.4 mg/dL

Question: And the “ApoB at Day 28, Median” value [2]?
Answer: 66.0 mg/dL

Question: And the “ApoB at Day 28, Minimum” value [2]?
Answer: 32 mg/dL

Question: And the “LDL-C at Day 28, Maximum” value [2]?
Answer: 169 mg/dL

Question: What about the “LDL-C at Day 28, Mean” value [2] of the same molecule?
Answer: 70.3 mg/dL

Question: What about the “LDL-C at Day 28, Median” value [2] of the same molecule?
Answer: 56.0 mg/dL

Question: And the “LDL-C at Day 28, Minimum” value [2]?
Answer: 16 mg/dL

Question: And the “ApoB at Day 84, Maximum” value [2]?
Answer: 147 mg/dL

Question: What about the “ApoB at Day 84, Mean” value [2] of the same molecule?
Answer: 82.4 mg/dL

Question: And the “ApoB at Day 84, Median” value [2]?
Answer: 72.0 mg/dL

Question: What about the “ApoB at Day 84, Minimum” value [2] of the same molecule?
Answer: 30 mg/dL

Question: And the “LDL-C at Day 84, Maximum” value [2]?
Answer: 196 mg/dL

Question: And the “LDL-C at Day 84, Mean” value [2]?
Answer: 82.7 mg/dL

Question: And the “LDL-C at Day 84, Median” value [2]?
Answer: 65.0 mg/dL

Question: What about the “LDL-C at Day 84, Minimum” value [2] of the same molecule?
Answer: 21 mg/dL

Question: What about the “Lp(a) at Day 84, Maximum” value [2] of the same molecule?
Answer: 327.7 nmol/L

Question: And the “Lp(a) at Day 84, Mean” value [2]?
Answer: 77.96 nmol/L

Question: What about the “Lp(a) at Day 84, Median” value [2] of the same molecule?
Answer: 26.25 nmol/L

Question: What about the “Lp(a) at Day 84, Minimum” value [2] of the same molecule?
Answer: 2.8 nmol/L
